Experimental findings from ChEMBL document CHEMBL4725415, “First Structure-Activity Relationship Study of Potent BLT2 Agonists as Potential Wound-Healing Promoters” (J Med Chem, 2020) are described below.

The solubility is how much of the substance goes into solution per volume. A high value points to much dissolved substance. Broadly, the amount remaining is the share of the starting amount still present when the sample was taken.

One data set can be described thus: physchem. The following applies: PBS buffer with 1% dimethyl sulfoxide, pH 7.4.
Another data set in a line: in vitro. The following applies: Sprague-Dawley, rat, liver microsomes. A general note: Liver microsomes are vesicles of endoplasmic reticulum, rich in cytochrome P450 enzymes.

Each structure is given as a SMILES string. Values after ≈ are worked out from the molar mass of the structure shown.

Take `CCCCC(=O)N(Cc1ccc(-c2ccccc2C(=O)O)cc1)c1ccccc1`: in “physchem”, the solubility was found to be 250 µM (≈ 96.9 µg/mL). The compound further displayed a share remaining at 1 h, 1000 µM in the data set “in vitro” of 66%.
